Data as given in the supplement of paper PMC10307832.

Columns and labels:
Test in all cases: relative viability (nuclei count vs DMSO), 5 days (fraction); higher = more cells survive
201T = test system: 201T
Method in brief: (§1)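 Cells from lung cancer lines were seeded into 1536-well plates and, one day later, dosed by pin tool. Treatments were either a single drug or a fixed dose of an anchor drug with five library-drug doses (not always all listed) in √10 steps. After 5 days, nuclei were stained in a one-step fixation (final 0.05% Triton X-100, 1% formaldehyde, 1 ug/ml Hoechst) and counted on 4× images, and relative viability is the treated-to-vehicle nuclei ratio, as the median of duplicate plates.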

LOU-NH91 = test system: LOU-NH91
Method in brief: as §1

NCI-H727 = test system: NCI-H727
Method in brief: as §1

HCC-366 = test system: HCC-366
Method in brief: as §1

HARA = test system: HARA
Method in brief: as §1

ABC-1 = test system: ABC-1
Method in brief: as §1

NCI-H2009 = test system: NCI-H2009
Method in brief: as §1

EKVX = test system: EKVX
Method in brief: as §1

NCI-H1666 = test system: NCI-H1666
Method in brief: as §1

NCI-H3122 = test system: NCI-H3122
Method in brief: as §1

NCI-H460 = test system: NCI-H460
Method in brief: as §1

PC-14 = test system: PC-14
Method in brief: as §1

BEN = test system: BEN
Method in brief: as §1

NCI-H661 = test system: NCI-H661
Method in brief: as §1

NCI-H2170 = test system: NCI-H2170
Method in brief: as §1

NCI-H1437 = test system: NCI-H1437
Method in brief: as §1

COR-L 105 = test system: COR-L 105
Method in brief: as §1

CAL-12T = test system: CAL-12T
Method in brief: as §1

LK-2 = test system: LK-2
Method in brief: as §1

NCI-H1650 = test system: NCI-H1650
Method in brief: as §1

Which relative viability (201T; first compound 0.0002 µM) does the source give for `CC(=O)O[C@@]12CO[C@@H]1C[C@H](O)[C@@]1(C)C(=O)[C@H](O)C3=C(C)[C@@H](OC(=O)[C@H](O)[C@@H](NC(=O)OC(C)(C)C)c4ccccc4)C[C@@](O)([C@@H](OC(=O)c4ccccc4)[C@H]21)C3(C)C` [Docetaxel] + CS(=O)(=O)CCNCc1ccc(-c2ccc3ncnc(Nc4ccc(OCc5cccc(F)c5)c(Cl)c4)c3c2)o1 [Lapatinib] (partner 2 µM) here?
The relative viability was 0.917.

And the relative viability (201T; first compound 0.000632 µM)?
The relative viability was 0.937.

And the relative viability (201T; first compound 0.002 µM)?
The relative viability was 0.822.

What about the relative viability (201T; first compound 0.006325 µM) of the same molecule?
The relative viability was 0.622.

And the relative viability (201T; first compound 0.02 µM)?
The relative viability was 0.373.

And the relative viability (LOU-NH91; first compound 0.0002 µM)?
Its relative viability is 0.715.

What about the relative viability (LOU-NH91; first compound 0.000632 µM) of the same molecule?
The relative viability was 0.589.

What about the relative viability (LOU-NH91; first compound 0.002 µM) of the same molecule?
Its relative viability is 0.462.

And the relative viability (LOU-NH91; first compound 0.006325 µM)?
The relative viability was 0.361.

What about the relative viability (LOU-NH91; first compound 0.02 µM) of the same molecule?
The relative viability was 0.351.

What about the relative viability (NCI-H727; first compound 0.0002 µM) of the same molecule?
Its relative viability is 0.854.

And the relative viability (NCI-H727; first compound 0.000632 µM)?
Its relative viability is 0.787.

What about the relative viability (NCI-H727; first compound 0.002 µM) of the same molecule?
The relative viability was 0.371.

And the relative viability (NCI-H727; first compound 0.006325 µM)?
Its relative viability is 0.26.

And the relative viability (HCC-366; first compound 0.0002 µM)?
Its relative viability is 0.938.

What about the relative viability (HCC-366; first compound 0.000632 µM) of the same molecule?
Its relative viability is 0.054.

What about the relative viability (HCC-366; first compound 0.002 µM) of the same molecule?
The relative viability was 0.0282.

And the relative viability (HCC-366; first compound 0.006325 µM)?
Its relative viability is 0.0194.

What about the relative viability (HCC-366; first compound 0.02 µM) of the same molecule?
The relative viability was 0.011.

And the relative viability (HARA; first compound 0.0002 µM)?
Its relative viability is 0.517.

And the relative viability (HARA; first compound 0.000632 µM)?
The relative viability was 0.302.

And the relative viability (HARA; first compound 0.006325 µM)?
The relative viability was 0.0686.

What about the relative viability (HARA; first compound 0.02 µM) of the same molecule?
The relative viability was 0.0783.

What about the relative viability (ABC-1; first compound 0.0002 µM) of the same molecule?
Its relative viability is 1.21.

What about the relative viability (ABC-1; first compound 0.000632 µM) of the same molecule?
The relative viability was 1.12.

And the relative viability (ABC-1; first compound 0.002 µM)?
Its relative viability is 1.14.

What about the relative viability (ABC-1; first compound 0.006325 µM) of the same molecule?
Its relative viability is 0.797.

What about the relative viability (ABC-1; first compound 0.02 µM) of the same molecule?
The relative viability was 0.577.

What about the relative viability (NCI-H2009; first compound 0.0002 µM) of the same molecule?
Its relative viability is 0.965.

And the relative viability (NCI-H2009; first compound 0.000632 µM)?
The relative viability was 0.922.

What about the relative viability (NCI-H2009; first compound 0.002 µM) of the same molecule?
The relative viability was 0.412.

And the relative viability (NCI-H2009; first compound 0.006325 µM)?
Its relative viability is 0.195.

And the relative viability (NCI-H2009; first compound 0.02 µM)?
The relative viability was 0.12.

And the relative viability (EKVX; first compound 0.0002 µM)?
The relative viability was 0.212.

What about the relative viability (EKVX; first compound 0.000632 µM) of the same molecule?
The relative viability was 0.173.

And the relative viability (EKVX; first compound 0.002 µM)?
The relative viability was 0.14.

And the relative viability (EKVX; first compound 0.006325 µM)?
The relative viability was 0.141.

What about the relative viability (EKVX; first compound 0.02 µM) of the same molecule?
Its relative viability is 0.119.

And the relative viability (NCI-H1666; first compound 0.0002 µM)?
Its relative viability is 0.462.

And the relative viability (NCI-H1666; first compound 0.000632 µM)?
The relative viability was 0.461.

And the relative viability (NCI-H1666; first compound 0.002 µM)?
The relative viability was 0.299.

What about the relative viability (NCI-H1666; first compound 0.006325 µM) of the same molecule?
Its relative viability is 0.197.

What about the relative viability (NCI-H1666; first compound 0.02 µM) of the same molecule?
Its relative viability is 0.198.

What about the relative viability (NCI-H3122; first compound 0.0002 µM) of the same molecule?
The relative viability was 0.979.

What about the relative viability (NCI-H3122; first compound 0.000632 µM) of the same molecule?
Its relative viability is 0.977.

And the relative viability (NCI-H3122; first compound 0.002 µM)?
Its relative viability is 0.942.

What about the relative viability (NCI-H3122; first compound 0.006325 µM) of the same molecule?
The relative viability was 0.296.

What about the relative viability (NCI-H3122; first compound 0.02 µM) of the same molecule?
Its relative viability is 0.242.

And the relative viability (NCI-H460; first compound 0.0002 µM)?
Its relative viability is 0.665.

What about the relative viability (NCI-H460; first compound 0.000632 µM) of the same molecule?
The relative viability was 0.163.

What about the relative viability (NCI-H460; first compound 0.002 µM) of the same molecule?
The relative viability was 0.0209.

And the relative viability (NCI-H460; first compound 0.006325 µM)?
Its relative viability is 0.0147.

And the relative viability (NCI-H460; first compound 0.02 µM)?
The relative viability was 0.0097.

And the relative viability (PC-14; first compound 0.0002 µM)?
Its relative viability is 0.272.

And the relative viability (PC-14; first compound 0.000632 µM)?
Its relative viability is 0.417.

And the relative viability (PC-14; first compound 0.002 µM)?
The relative viability was 0.235.

And the relative viability (PC-14; first compound 0.006325 µM)?
The relative viability was 0.0958.

And the relative viability (PC-14; first compound 0.02 µM)?
The relative viability was 0.0629.

And the relative viability (BEN; first compound 0.0002 µM)?
The relative viability was 0.582.

And the relative viability (BEN; first compound 0.000632 µM)?
The relative viability was 0.549.

And the relative viability (BEN; first compound 0.002 µM)?
The relative viability was 0.233.

And the relative viability (BEN; first compound 0.006325 µM)?
Its relative viability is 0.203.

What about the relative viability (BEN; first compound 0.02 µM) of the same molecule?
The relative viability was 0.176.

And the relative viability (NCI-H661; first compound 0.0002 µM)?
The relative viability was 0.495.

What about the relative viability (NCI-H661; first compound 0.000632 µM) of the same molecule?
The relative viability was 0.516.

And the relative viability (NCI-H661; first compound 0.002 µM)?
Its relative viability is 0.4.

And the relative viability (NCI-H661; first compound 0.006325 µM)?
Its relative viability is 0.369.

What about the relative viability (NCI-H661; first compound 0.02 µM) of the same molecule?
Its relative viability is 0.245.

And the relative viability (NCI-H2170; first compound 0.0002 µM)?
The relative viability was 0.279.

And the relative viability (NCI-H2170; first compound 0.000632 µM)?
Its relative viability is 0.265.

What about the relative viability (NCI-H2170; first compound 0.002 µM) of the same molecule?
Its relative viability is 0.194.

What about the relative viability (NCI-H2170; first compound 0.006325 µM) of the same molecule?
The relative viability was 0.224.

And the relative viability (NCI-H2170; first compound 0.02 µM)?
Its relative viability is 0.184.

What about the relative viability (NCI-H1437; first compound 0.0002 µM) of the same molecule?
The relative viability was 0.663.

What about the relative viability (NCI-H1437; first compound 0.000632 µM) of the same molecule?
Its relative viability is 0.508.

What about the relative viability (NCI-H1437; first compound 0.002 µM) of the same molecule?
The relative viability was 0.185.

What about the relative viability (NCI-H1437; first compound 0.006325 µM) of the same molecule?
The relative viability was 0.12.

And the relative viability (NCI-H1437; first compound 0.02 µM)?
Its relative viability is 0.089.

What about the relative viability (COR-L 105; first compound 0.0002 µM) of the same molecule?
The relative viability was 0.369.

What about the relative viability (COR-L 105; first compound 0.000632 µM) of the same molecule?
Its relative viability is 0.277.

And the relative viability (COR-L 105; first compound 0.002 µM)?
The relative viability was 0.313.

What about the relative viability (COR-L 105; first compound 0.006325 µM) of the same molecule?
Its relative viability is 0.283.

And the relative viability (COR-L 105; first compound 0.02 µM)?
The relative viability was 0.268.

And the relative viability (CAL-12T; first compound 0.0002 µM)?
The relative viability was 0.757.

And the relative viability (CAL-12T; first compound 0.000632 µM)?
The relative viability was 0.496.

And the relative viability (CAL-12T; first compound 0.002 µM)?
The relative viability was 0.277.

And the relative viability (CAL-12T; first compound 0.006325 µM)?
The relative viability was 0.25.

And the relative viability (LK-2; first compound 0.0002 µM)?
Its relative viability is 0.843.

And the relative viability (LK-2; first compound 0.000632 µM)?
Its relative viability is 0.662.

And the relative viability (LK-2; first compound 0.002 µM)?
The relative viability was 0.244.

And the relative viability (LK-2; first compound 0.006325 µM)?
Its relative viability is 0.248.

And the relative viability (LK-2; first compound 0.02 µM)?
The relative viability was 0.148.

And the relative viability (NCI-H1650; first compound 0.0002 µM)?
The relative viability was 0.721.

What about the relative viability (NCI-H1650; first compound 0.000632 µM) of the same molecule?
Its relative viability is 0.322.

And the relative viability (NCI-H1650; first compound 0.006325 µM)?
Its relative viability is 0.153.

What about the relative viability (NCI-H1650; first compound 0.02 µM) of the same molecule?
The relative viability was 0.152.
